Test system: cartilage degradation (proteoglycan content in the synovial fluid)
Assay: Acute Cartilage Degradation Rat Model
Assay type: in vivo
Settings: rats, after compound administration
Description: An in vivo model of acute cartilage degradation in rats has been characterized as a method to determine the proteoglycan content in the synovial fluid after the induction of cartilage degradation.

## COc1ccc2c(c1)c(CC(=O)O)c(C)n2C(=O)c1ccc(Cl)cc1 [Indomethacin]
  inhibition of cartilage degradation, as measured by increased proteoglycan content in the synovial fluid: inactive
